In ChEMBL document CHEMBL1158232, “Isolation of Polyhydroxysteroids from the Gorgonian Acabaria undulata” (J Nat Prod, 1996):
Active and inactive are the calls of the source. No cut-off for these calls is given here.

Experiments:
Phospholipase A2 [1] = target: T1, Phospholipase A2 (Homo sapiens, UniProt P04054); experiment: Inhibition of PLA2 at 100 uM
Target sequence in this assay (P04054 23-148 limits assumed): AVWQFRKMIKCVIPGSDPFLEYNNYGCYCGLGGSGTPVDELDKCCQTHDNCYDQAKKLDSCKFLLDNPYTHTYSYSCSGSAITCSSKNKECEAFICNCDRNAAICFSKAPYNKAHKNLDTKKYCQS

DLD-1 = experiment: Cytotoxicity against human DLD1 cells; assay type: functional, cell-based
P388 = experiment: Cytotoxicity against mouse P388 cells; assay type: functional, cell-based
Phospholipase A2 [2] = target: T1, Phospholipase A2; experiment: Inhibition of PLA2
Target sequence in this assay (P04054 whole entry): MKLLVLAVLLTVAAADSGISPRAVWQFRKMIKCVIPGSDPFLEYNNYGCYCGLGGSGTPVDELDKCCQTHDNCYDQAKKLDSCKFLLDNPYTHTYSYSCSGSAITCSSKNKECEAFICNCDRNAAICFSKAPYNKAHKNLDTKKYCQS

Compound	Activity (Phospholipase A2 [1])	IC50 (DLD-1) [µM]	IC50 (P388) [µM]	IC50 (Phospholipase A2 [2]) [µM]
CC(=O)O[C@H]1CC[C@]2(C)[C@H]3CC[C@]4(C)[C@@H]([C@H](C)/C=C/CC(C)C)CC[C@H]4[C@]34O[C@@H]4[C@H](OC(C)=O)[C@@]2(O)C1	inactive	12.6	11.6	–
CC(C)CCC[C@@H](C)[C@H]1CC[C@@H]2[C@]1(C)CC[C@H]1[C@@]23O[C@@H]3[C@H](O)[C@@]2(O)C[C@@H](O)CC[C@]12C	–	19.6	17.9	13.8
CC(C)C(C)/C=C/[C@@H](C)[C@H]1CC[C@@H]2[C@]1(C)CC[C@H]1[C@@]23O[C@@H]3[C@H](O)[C@@]2(O)C[C@@H](O)CC[C@]12C (some centres not stated)	inactive	22.4	20.2	–
CC(C)/C=C/[C@@H](C)[C@H]1CC[C@@H]2[C@]1(C)CC[C@H]1[C@@]23O[C@@H]3[C@H](O)[C@@]2(O)C[C@@H](O)CC[C@]12C	–	24.6	28.7	21.5
